Measurements from US20230278972A1, “SUBSTITUTED HALOALKYL SULFONANILIDE HERBICIDES” (FMC Corporation, priority 2020, published 2023).

Tests used:
Type in all cases: in vivo
[1] = test system: barnyardgrass (Echinochloa crus-galli); test: Test A preemergence, barnyardgrass; settings: Preemergence, 0 to 100 scale (0 no effect, 100 complete control)
Procedure, shortened: (§1)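 Whole-plant herbicidal screen in pots of loam blended with sand. Sprays used a surfactant-containing, non-phytotoxic solvent vehicle. Timing was preemergence soil-directed at planting or postemergence at the one- to two-leaf stage (2–10 cm).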

kochia (Bassia scoparia) [2] = test: Test A preemergence, kochia; settings: Preemergence, 0 to 100 scale (0 no effect, 100 complete control)
Procedure, shortened: as §1

[3] = test system: ragweed (common ragweed, Ambrosia artemisiifolia); test: Test A preemergence, ragweed; settings: Preemergence, 0 to 100 scale (0 no effect, 100 complete control)
Procedure, shortened: as §1

[4] = test system: Ryegrass, Italian (Italian ryegrass, Lolium multiflorum); test: Test A preemergence, Ryegrass, Italian; settings: Preemergence, 0 to 100 scale (0 no effect, 100 complete control)
Procedure, shortened: as §1

[5] = test system: Foxtail, Giant (giant foxtail, Setaria faberi); test: Test A preemergence, Foxtail, Giant; settings: Preemergence, 0 to 100 scale (0 no effect, 100 complete control)
Procedure, shortened: as §1

[6] = test system: pigweed (Amaranthus retroflexus); test: Test A preemergence, pigweed; settings: 0 to 100 scale (0 no effect, 100 complete control)
Procedure, shortened: (§2)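 Barnyardgrass, wheat and galium were treated postemergence at the one- to two-leaf stage (2 to 10 cm) with chemicals formulated in non-phytotoxic solvent plus surfactant, grown in loam soil–sand pots. Pigweed was sown in the same blend and given a preemergence directed soil spray.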

[7] = test system: barnyardgrass (Echinochloa crus-galli); test: Test A postemergence, barnyardgrass; settings: Postemergence, 0 to 100 scale (0 no effect, 100 complete control); for Plant response rating, Barnyardgrass: 125 g ai/ha; for Barnyardgrass plant response rating: 500 g ai/ha, visual injury vs untreated controls after approx. 10 days
Procedure, shortened: as §2

kochia (Bassia scoparia) [8] = test: Test A postemergence, kochia; settings: Postemergence, 0 to 100 scale (0 no effect, 100 complete control); for Plant response rating, Kochia: 125 g ai/ha; for Kochia plant response rating: 500 g ai/ha, visual injury vs untreated controls after approx. 10 days
Procedure, shortened: as §1

[9] = test system: ragweed (common ragweed, Ambrosia artemisiifolia); test: Test A postemergence, ragweed; settings: Postemergence, 0 to 100 scale (0 no effect, 100 complete control); for Plant response rating, Ragweed: 125 g ai/ha; for Ragweed plant response rating: 500 g ai/ha, visual injury vs untreated controls after approx. 10 days
Procedure, shortened: as §1

[10] = test system: Ryegrass, Italian (Italian ryegrass, Lolium multiflorum); test: Test A postemergence, Ryegrass, Italian; settings: Postemergence, 0 to 100 scale (0 no effect, 100 complete control); for Plant response rating, Ryegrass, Italian: 125 g ai/ha; for Ryegrass, Italian plant response rating: 500 g ai/ha, visual injury vs untreated controls after approx. 10 days
Procedure, shortened: as §1

[11] = test system: Foxtail, Giant (giant foxtail, Setaria faberi); test: Test A postemergence, Foxtail, Giant; settings: Postemergence, 0 to 100 scale (0 no effect, 100 complete control); for Plant response rating, Foxtail, Giant: 125 g ai/ha; for Foxtail, Giant plant response rating: 500 g ai/ha, visual injury vs untreated controls after approx. 10 days
Procedure, shortened: as §1

[12] = test system: pigweed (Amaranthus retroflexus); test: Test A postemergence, pigweed; settings: Postemergence, 0 to 100 scale (0 no effect, 100 complete control); for Plant response rating, Pigweed: 125 g ai/ha; for Pigweed plant response rating: 500 g ai/ha, visual injury vs untreated controls after approx. 10 days
Procedure, shortened: as §1

[13] = test system: wheat (Triticum aestivum); test: Test A postemergence, wheat; settings: Postemergence, 0 to 100 scale (0 no effect, 100 complete control); for Plant response rating, Wheat: 125 g ai/ha; for Wheat plant response rating: 500 g ai/ha, visual injury vs untreated controls after approx. 10 days
Procedure, shortened: as §2

corn (Zea mays) = test: Test A postemergence, corn; settings: Postemergence, 0 to 100 scale (0 no effect, 100 complete control); for Plant response rating, Corn: 125 g ai/ha; for Corn plant response rating: 500 g ai/ha, visual injury vs untreated controls after approx. 10 days
Procedure, shortened: as §1

[14] = test system: blackgrass (Alopecurus myosuroides); test: Test A postemergence, blackgrass; settings: Postemergence, 0 to 100 scale (0 no effect, 100 complete control); for Plant response rating, Blackgrass: 125 g ai/ha; for Blackgrass plant response rating: 500 g ai/ha, visual injury vs untreated controls after approx. 10 days
Procedure, shortened: as §1

[15] = test system: galium (catchweed bedstraw, Galium aparine); test: Test A postemergence, galium; settings: Postemergence, 0 to 100 scale (0 no effect, 100 complete control); for Plant response rating, Galium: 125 g ai/ha; for Galium plant response rating: 500 g ai/ha, visual injury vs untreated controls after approx. 10 days
Procedure, shortened: as §2

[16] = 125 g ai/ha, visual injury, approx. 10 days

| Structure (SMILES) | Plant response rating, Barnyardgrass [1, 16] | Plant response rating, Barnyardgrass ([1]; 500 g ai/ha) | Plant response rating, Kochia (kochia (Bassia scoparia) [2]; [16]) | Plant response rating, Kochia (kochia (Bassia scoparia) [2]; 500 g ai/ha) | Plant response rating, Ragweed [3, 16] | Plant response rating, Ragweed ([3]; 500 g ai/ha) | Plant response rating, Ryegrass, Italian [4, 16] | Plant response rating, Ryegrass, Italian ([4]; 500 g ai/ha) | Plant response rating, Foxtail, Giant [5, 16] | Plant response rating, Foxtail, Giant ([5]; 500 g ai/ha) | Plant response rating, Pigweed [6, 16] | Plant response rating, Pigweed ([6]; 500 g ai/ha) | Plant response rating, Barnyardgrass [7] | Barnyardgrass plant response rating [7] | Plant response rating, Kochia (kochia (Bassia scoparia) [8]) | Kochia plant response rating (kochia (Bassia scoparia) [8]) | Plant response rating, Ragweed [9] | Ragweed plant response rating [9] | Plant response rating, Ryegrass, Italian [10] | Ryegrass, Italian plant response rating [10] | also measured |
| --- | --- | --- | --- | --- | --- | --- | --- | --- | --- | --- | --- | --- | --- | --- | --- | --- | --- | --- | --- | --- | --- |
| Cc1cc(F)c(C(=O)N2CCCCC2)cc1N(S(=O)(=O)C(F)(F)F)S(=O)(=O)C(F)(F)F [Compound 212] | 0 | 90 | 30 | 90 | 0 | 30 | 30 | 70 | 20 | 90 | 90 | 90 | 0 | 0 | 20 | 70 | 20 | 20 | 0 | 50 | Plant response rating, Foxtail, Giant [11]: 0; Foxtail, Giant plant response rating [11]: 20; Plant response rating, Pigweed [12]: 20; Pigweed plant response rating [12]: 60; Plant response rating, Wheat [13]: 0; Wheat plant response rating [13]: 0; Plant response rating, Corn (corn (Zea mays)): 0; Corn plant response rating (corn (Zea mays)): 10; Plant response rating, Blackgrass [14]: 0; Blackgrass plant response rating [14]: 0; Plant response rating, Galium [15]: 50; Galium plant response rating [15]: 70 |
| Cc1cc(F)c(C(=O)N(C)C)cc1NS(=O)(=O)C(F)(F)F [Compound 215] | 60 | 90 | 80 | 90 | 0 | 20 | 20 | 70 | 40 | 70 | 100 | 90 | 0 | 40 | 30 | 70 | 60 | 80 | 0 | 60 | Plant response rating, Foxtail, Giant [11]: 20; Foxtail, Giant plant response rating [11]: 50; Plant response rating, Pigweed [12]: 50; Pigweed plant response rating [12]: 80; Plant response rating, Wheat [13]: 30; Wheat plant response rating [13]: 70; Plant response rating, Corn (corn (Zea mays)): 0; Corn plant response rating (corn (Zea mays)): 60; Plant response rating, Blackgrass [14]: 0; Blackgrass plant response rating [14]: 0; Plant response rating, Galium [15]: 50; Galium plant response rating [15]: 70 |
